Experimental data reported in patent US10442807B2, “Aryl substituted bicyclic compounds as herbicides” (FMC Corporation, priority 2015, dated 2019).

How the values were obtained:
Type in all cases: in vivo
[1] = system: sedge, umbrella (small-flower umbrella sedge, Cyperus difformis); assay: Test B flooded paddy test, visual plant response rating; details: 250 g ai/ha; applied to paddy water at 2-leaf stage; rated after 13 to 15 days; scale 0 to 100, 0 is no effect, 100 is complete control
Method in brief: (§1)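 Ratings compare treated with control plants by eye, scored 0 (no effect) to 100 (complete control). Application is into paddy water 3 cm deep over soil, maintained at that level for 13–15 days under greenhouse conditions.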

[2] = system: ducksalad (Heteranthera limosa); assay: as above; details: 250 g ai/ha; applied to paddy water at 2-leaf stage; rated after 13 to 15 days; scale 0 to 100, 0 is no effect, 100 is complete control
Method in brief: as §1

rice (Oryza sativa) = assay: as above; details: 250 g ai/ha; applied to paddy water at 2-leaf stage; rated after 13 to 15 days; scale 0 to 100, 0 is no effect, 100 is complete control
Method in brief: as §1

[3] = system: barnyardgrass (Echinochloa crus-galli); assay: as above; details: 250 g ai/ha; applied to paddy water at 2-leaf stage; rated after 13 to 15 days; scale 0 to 100, 0 is no effect, 100 is complete control
Method in brief: as §1

[4] = system: pigweed (Amaranthus retroflexus); assay: Test A preemergence, directed soil spray, visual injury rating; details: approx. 10 d, 0 = no effect, 100 = complete control
Method in brief: (§2)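 Rated visually against untreated controls after approx. 10 d in greenhouse, scale 0 = no effect, 100 = complete control. Seeded loam/sand blend given directed soil spray preemergence, or plants sprayed at one- to two-leaf stage, 2-10 cm tall; surfactant-containing non-phytotoxic solvent formulation.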

[5] = system: ragweed (common ragweed, Ambrosia elation); assay: as above; details: approx. 10 d, 0 = no effect, 100 = complete control
Method in brief: as §2

[6] = system: ryegrass, Italian (Italian ryegrass, Lolium multiflorum); assay: as above; details: approx. 10 d, 0 = no effect, 100 = complete control
Method in brief: as §2

kochia (Kochia scoparia) [7] = assay: as above; details: approx. 10 d, 0 = no effect, 100 = complete control
Method in brief: as §2

[8] = system: foxtail, giant (giant foxtail, Setaria faberii); assay: as above; details: approx. 10 d, 0 = no effect, 100 = complete control
Method in brief: as §2

[9] = system: barnyardgrass (Echinochloa crus-galli); assay: as above; details: approx. 10 d, 0 = no effect, 100 = complete control
Method in brief: as §2

[10] = system: galium (catchweed bedstraw, Galium aparine); assay: Test A postemergence application, visual injury rating; details: approx. 10 d, 0 = no effect, 100 = complete control
Method in brief: as §2

corn (Zea mays) = assay: as above; details: approx. 10 d, 0 = no effect, 100 = complete control
Method in brief: as §2

[11] = system: pigweed (Amaranthus retroflexus); assay: as above; details: approx. 10 d, 0 = no effect, 100 = complete control
Method in brief: as §2

[12] = system: ragweed (common ragweed, Ambrosia elation); assay: as above; details: approx. 10 d, 0 = no effect, 100 = complete control
Method in brief: as §2

[13] = system: wheat (Triticum aestivum); assay: as above; details: approx. 10 d, 0 = no effect, 100 = complete control
Method in brief: as §2

[14] = system: ryegrass, Italian (Italian ryegrass, Lolium multiflorum); assay: as above; details: approx. 10 d, 0 = no effect, 100 = complete control
Method in brief: as §2

kochia (Kochia scoparia) [15] = assay: as above; details: approx. 10 d, 0 = no effect, 100 = complete control
Method in brief: as §2

[16] = system: blackgrass (Alopecurus myosuroides); assay: as above; details: approx. 10 d, 0 = no effect, 100 = complete control
Method in brief: as §2

[17] = system: foxtail, giant (giant foxtail, Setaria faberii); assay: as above; details: approx. 10 d, 0 = no effect, 100 = complete control
Method in brief: as §2

[18] = system: barnyardgrass (Echinochloa crus-galli); assay: as above; details: approx. 10 d, 0 = no effect, 100 = complete control
Method in brief: as §2

| Structure (SMILES) | Plant response rating, Flood, Sedge, Umbrella [1] | Plant response rating, Flood, Ducksalad [2] | Plant response rating, Flood, Rice (rice (Oryza sativa)) | Plant response rating, Flood, Barnyardgrass [3] | Pigweed plant response rating (0 to 100 scale) ([4]; 125 g ai/ha) | Pigweed plant response rating (0 to 100 scale) ([4]; 500 g ai/ha) | Ragweed plant response rating (0 to 100 scale) ([5]; 125 g ai/ha) | Ragweed plant response rating (0 to 100 scale) ([5]; 500 g ai/ha) | Ryegrass, Italian plant response rating (0 to 100 scale) ([6]; 125 g ai/ha) | Ryegrass, Italian plant response rating (0 to 100 scale) ([6]; 500 g ai/ha) | Kochia plant response rating (0 to 100 scale) (kochia (Kochia scoparia) [7]; 125 g ai/ha) | Kochia plant response rating (0 to 100 scale) (kochia (Kochia scoparia) [7]; 500 g ai/ha) | Foxtail, Giant plant response rating (0 to 100 scale) ([8]; 125 g ai/ha) | Foxtail, Giant plant response rating (0 to 100 scale) ([8]; 500 g ai/ha) | Barnyardgrass plant response rating (0 to 100 scale) ([9]; 125 g ai/ha) | Barnyardgrass plant response rating (0 to 100 scale) ([9]; 500 g ai/ha) | Galium plant response rating (0 to 100 scale) ([10]; 125 g ai/ha) | Galium plant response rating (0 to 100 scale) ([10]; 500 g ai/ha) | Corn plant response rating (0 to 100 scale) (corn (Zea mays); 125 g ai/ha) | Corn plant response rating (0 to 100 scale) (corn (Zea mays); 500 g ai/ha) | further results |
| --- | --- | --- | --- | --- | --- | --- | --- | --- | --- | --- | --- | --- | --- | --- | --- | --- | --- | --- | --- | --- | --- |
| Cc1ccc(C2Cn3c(C)nnc3C2C(=O)Nc2cccc(F)c2C)cc1C (stereo not drawn) [Compound 10] | 0 | 45 | 0 | 20 | 0 | 20 | 0 | 0 | 0 | 70 | 0 | 50 | 80 | 90 | 50 | 90 | 0 | 50 | 20 | 40 | Pigweed plant response rating (0 to 100 scale) ([11]; 125 g ai/ha): 0; Pigweed plant response rating (0 to 100 scale) ([11]; 500 g ai/ha): 0; Ragweed plant response rating (0 to 100 scale) ([12]; 125 g ai/ha): 0; Ragweed plant response rating (0 to 100 scale) ([12]; 500 g ai/ha): 20; Wheat plant response rating (0 to 100 scale) ([13]; 125 g ai/ha): 30; Wheat plant response rating (0 to 100 scale) ([13]; 500 g ai/ha): 30; Ryegrass, Italian plant response rating (0 to 100 scale) ([14]; 125 g ai/ha): 0; Ryegrass, Italian plant response rating (0 to 100 scale) ([14]; 500 g ai/ha): 30; Kochia plant response rating (0 to 100 scale) (kochia (Kochia scoparia) [15]; 125 g ai/ha): 0; Kochia plant response rating (0 to 100 scale) (kochia (Kochia scoparia) [15]; 500 g ai/ha): 30; Blackgrass plant response rating (0 to 100 scale) ([16]; 125 g ai/ha): 0; Blackgrass plant response rating (0 to 100 scale) ([16]; 500 g ai/ha): 70; Foxtail, Giant plant response rating (0 to 100 scale) ([17]; 125 g ai/ha): 30; Foxtail, Giant plant response rating (0 to 100 scale) ([17]; 500 g ai/ha): 80; Barnyardgrass plant response rating (0 to 100 scale) ([18]; 125 g ai/ha): 50; Barnyardgrass plant response rating (0 to 100 scale) ([18]; 500 g ai/ha): 90 |
| Cc1ccc(C2Cn3cnnc3C2C(=O)Nc2cccc(F)c2C)cc1C (stereo not drawn) [Compound 26] | 0 | 85 | 20 | 0 | 0 | 0 | 0 | 0 | 0 | 50 | 20 | 30 | 80 | 90 | 60 | 90 | 30 | 0 | 20 | 0 | Pigweed plant response rating (0 to 100 scale) ([11]; 125 g ai/ha): 0; Pigweed plant response rating (0 to 100 scale) ([11]; 500 g ai/ha): 0; Ragweed plant response rating (0 to 100 scale) ([12]; 125 g ai/ha): 0; Ragweed plant response rating (0 to 100 scale) ([12]; 500 g ai/ha): 0; Wheat plant response rating (0 to 100 scale) ([13]; 125 g ai/ha): 30; Wheat plant response rating (0 to 100 scale) ([13]; 500 g ai/ha): 0; Ryegrass, Italian plant response rating (0 to 100 scale) ([14]; 125 g ai/ha): 0; Ryegrass, Italian plant response rating (0 to 100 scale) ([14]; 500 g ai/ha): 20; Kochia plant response rating (0 to 100 scale) (kochia (Kochia scoparia) [15]; 125 g ai/ha): 0; Kochia plant response rating (0 to 100 scale) (kochia (Kochia scoparia) [15]; 500 g ai/ha): 0; Blackgrass plant response rating (0 to 100 scale) ([16]; 125 g ai/ha): 0; Blackgrass plant response rating (0 to 100 scale) ([16]; 500 g ai/ha): 50; Foxtail, Giant plant response rating (0 to 100 scale) ([17]; 125 g ai/ha): 50; Foxtail, Giant plant response rating (0 to 100 scale) ([17]; 500 g ai/ha): 80; Barnyardgrass plant response rating (0 to 100 scale) ([18]; 125 g ai/ha): 50; Barnyardgrass plant response rating (0 to 100 scale) ([18]; 500 g ai/ha): 80 |
| CCCc1nnc2n1CC(c1ccc(C(F)(F)F)cc1)C2C(=O)Nc1cccc(F)c1F (stereo not drawn) [Compound 17] | 0 | 30 | 0 | 0 | 0 | 20 | 0 | 0 | 0 | 0 | 0 | 30 | 30 | 90 | 0 | 50 | 40 | 50 | 0 | 0 | Pigweed plant response rating (0 to 100 scale) ([11]; 125 g ai/ha): 0; Pigweed plant response rating (0 to 100 scale) ([11]; 500 g ai/ha): 40; Ragweed plant response rating (0 to 100 scale) ([12]; 125 g ai/ha): 0; Ragweed plant response rating (0 to 100 scale) ([12]; 500 g ai/ha): 0; Wheat plant response rating (0 to 100 scale) ([13]; 125 g ai/ha): 0; Wheat plant response rating (0 to 100 scale) ([13]; 500 g ai/ha): 0; Ryegrass, Italian plant response rating (0 to 100 scale) ([14]; 125 g ai/ha): 0; Ryegrass, Italian plant response rating (0 to 100 scale) ([14]; 500 g ai/ha): 0; Kochia plant response rating (0 to 100 scale) (kochia (Kochia scoparia) [15]; 125 g ai/ha): 20; Kochia plant response rating (0 to 100 scale) (kochia (Kochia scoparia) [15]; 500 g ai/ha): 50; Blackgrass plant response rating (0 to 100 scale) ([16]; 125 g ai/ha): 0; Blackgrass plant response rating (0 to 100 scale) ([16]; 500 g ai/ha): 20; Foxtail, Giant plant response rating (0 to 100 scale) ([17]; 125 g ai/ha): 0; Foxtail, Giant plant response rating (0 to 100 scale) ([17]; 500 g ai/ha): 30; Barnyardgrass plant response rating (0 to 100 scale) ([18]; 125 g ai/ha): 0; Barnyardgrass plant response rating (0 to 100 scale) ([18]; 500 g ai/ha): 30 |
